Test results reported in patent EP0390515A1, “Novel adenine derivatives and their use as agents for increasing crop yields” (MITSUBISHI GAS CHEMICAL COMPANY, INC., priority 1989, dated 1990).
Converted amounts (≈) assume the structure as drawn. Like-named read-outs stand apart in the source and are kept apart here. One block for each compound: values may come before it.

How the values were obtained:
[1] = Water solubility; type: physicochemical
Procedure: Water solubility of adenine derivatives of the present invention and representative known cytokinin substances was measured and the results are shown in Table 7. […]

[2] = system: glycine (soybean) hypocotyl section; test: Assay for cytokinin activity according to glycine (soybean) hypocotyl section growth test (callus weight); type: cell-based, Soybean (var.: Enrei); conditions: Miller's medium with 2,4-D, dark, 30°C, about one month
Procedure: Soybean seeds (var.: Enrei) were disinfected with antiformin containing 0.7% effective chlorine for 4 minutes and washed thrice with sterilized water.
Agar (15 ml, 1.6%) was put in a test tube 2.5 cm in diameter. A groove was cut by forceps on the surface of the agar and two soybean seeds treated as above were placed in this groove and kept in the dark at 30°C for 5 days.
In a glass tubular bottle 26 mm in inner diameter was put Miller's medium, to which a given concentration of the candidate compound, benzyladenine or zeatin and […] of 2,4-D were added. The central portion of hypocotyl budding out from the above seeds was cut off to give a section 1 mm thick. Four of the sections as one group were transplanted to the Miller's medium. This was placed in the dark at 30°C for about one month and then the weight of callus formed was measured. For untreated group, the Miller's medium containing 9 mg/l of 2,4-D was used.

[3] = system: pig weed (Amaranthus caudatus); test: Assay of cytokinin activity to promote synthesis of betacyanin by pig weed cotyledon sections; type: cell-based; conditions: 27°C, 20 hours, dark
Procedure: Two sheets of filter paper were put double in a plastic container (19 x 28 cm) and were wetted with 60 ml of distilled water. Seeds of pig weed were sown on the filter papers and were germinated by keeping them in the dark at 27°C for 3 days. Seedlings of uniform size were chosen and were cut at the upper part of the hypocotyl and the seed coats were removed. This cotyledon with hypocotyl of 3-4 mm in length was used for assay.
Two sheets of filter paper were put double in a glass tubular bottle 32 mm in inner diameter and 1 ml of 0.0065M potassium phosphate buffer solution (pH: 6.3) containing a given concentration of the candidate compound, benzyladenine or zeatin and 0.5 g/l of tyrosine was added therein and ten of the above cotyledon sections were arranged therein and kept at 27°C for 20 hours in the dark. These ten cotyledon sections were put in a test tube containing 3 ml of distilled water and betacyanin was extracted by repeating thrice freezing and thawing. Absorbance of the solution was measured and the amount of the dye was calculated by the difference between the absorbance at 542 nm and at 620 nm. For the untreated group, 0.0065M potassium phosphate buffer solution (pH: 6.3) containing 0.5 g/l of tyrosine was used.

[4] = system: Rice seeds (var.: Nankin No. 11) leaf section; test: Assay of cytokinin activity by measurement of chlorophyll content (senescence retardation of rice leaf sections); type: cell-based, Rice (var.: Nankin No. 11); conditions: dark, 30°C, 3 days
Procedure: Rice seeds (var.: Nankin No. 11) were sown in soil mixed with fertilizer in a seed box and raised for about one month in a greenhouse (25°C in the daytime and 15°C in the night).
A leaf section 1 cm long was cut off from the center of the fourth leaf of the seedlings at the sixth leaf stage. Five leaf sections as one group which had been cut off were floated on the surface of an aqueous solution (2 ml) of the candidate compound or benzyl adenine at a given concentration contained in a glass tubular bottle of 32 mm in inner diameter. This was left to stand in the dark at 30°C for 3 days. The leaf sections were taken out and put in a test tube containing 10 ml of 80% ethanol and the glass tube was immersed in a water bath of 80°C for 20 minutes to extract chlorophyll. After cooling, 80% ethanol was added to make up to 10 ml and absorbance at 665 nm was measured. For the untreated group, water was used in place of the candidate solution in all examples.
Senescence retardation was determined according to the degree of chlorophyll retention, that is, calculated using the following formula (in all examples). [formula] • (A) : Absorbance of treated group after 3 days • (B) : Absorbance of untreated group after 3 days • (C) : Absorbance of leaves before treatment.

[5] = 20°C, read-out: Solubility (g/100 g H₂O) (20°C)

solubility [1]: 0.02 mg/mL (≈ 0.0929 mM)
Structure (SMILES): c1coc(CNc2ncnc3[nH]cnc23)c1 [Kinetin, reference compound]

solubility [1, 5]: 53 mg/mL (≈ 212 mM)
Structure (SMILES): CON(C)CCCCNc1ncnc2nc[nH]c12 [MABD, N⁶-[4-(N-methoxy-N-methylamino)butyl]adenine]
The weight of soybean callus formed ([2]; 0.01 mg/l): 51 mg
The weight of soybean callus formed ([2]; 0.1 mg/l): 152 mg
The weight of soybean callus formed ([2]; 1.0 mg/l): 178 mg
The weight of soybean callus formed ([2]; 10 mg/l): 824 mg
The amount of betacyanin produced (difference between absorbance at 542 nm and 620 nm) ([3]; 0.1 mg/l): 0.044
The amount of betacyanin produced (difference between absorbance at 542 nm and 620 nm) ([3]; 1.0 mg/l): 0.069
The amount of betacyanin produced (difference between absorbance at 542 nm and 620 nm) ([3]; 10 mg/l): 0.127
The amount of betacyanin produced (difference between absorbance at 542 nm and 620 nm) ([3]; 100 mg/l): 0.207
The senescence retardation (%) ([4]; 0.01 mg/l): 1%
The senescence retardation (%) ([4]; 0.1 mg/l): 11%
The senescence retardation (%) ([4]; 1.0 mg/l): 21%
The senescence retardation (%) ([4]; 10 mg/l): 77%
The senescence retardation (%) ([4]; 100 mg/l): 87%

solubility [1, 5]: 136 mg/mL (≈ 576 mM)
Structure (SMILES): CON(C)CCCNc1ncnc2nc[nH]c12 [MAPD, N⁶-[3-(N-methoxy-N-methylamino)propyl]adenine]
The weight of soybean callus formed ([2]; 0.01 mg/l): 131 mg
The weight of soybean callus formed ([2]; 0.1 mg/l): 143 mg
The weight of soybean callus formed ([2]; 1.0 mg/l): 841 mg
The weight of soybean callus formed ([2]; 10 mg/l): 677 mg
The amount of betacyanin produced (difference between absorbance at 542 nm and 620 nm) ([3]; 0.1 mg/l): 0.065
The amount of betacyanin produced (difference between absorbance at 542 nm and 620 nm) ([3]; 1.0 mg/l): 0.132
The amount of betacyanin produced (difference between absorbance at 542 nm and 620 nm) ([3]; 10 mg/l): 0.227
The amount of betacyanin produced (difference between absorbance at 542 nm and 620 nm) ([3]; 100 mg/l): 0.236
The senescence retardation (%) ([4]; 0.01 mg/l): 18%
The senescence retardation (%) ([4]; 0.1 mg/l): 50%
The senescence retardation (%) ([4]; 1.0 mg/l): 94%
The senescence retardation (%) ([4]; 10 mg/l): 99%
The senescence retardation (%) ([4]; 100 mg/l): 91%

solubility [1, 5]: 1.4 mg/mL (≈ 6.39 mM)
Structure (SMILES): C/C(=C\CNc1ncnc2[nH]cnc12)CO [t-Zeatin, reference compound]
The weight of soybean callus formed ([2]; 0.001 mg/l): 52 mg
The weight of soybean callus formed ([2]; 0.01 mg/l): 382 mg
The weight of soybean callus formed ([2]; 0.1 mg/l): 815 mg
The weight of soybean callus formed ([2]; 1.0 mg/l): 662 mg
The amount of betacyanin produced (difference between absorbance at 542 nm and 620 nm) ([3]; 0.001 mg/l): 0.040
The amount of betacyanin produced (difference between absorbance at 542 nm and 620 nm) ([3]; 0.01 mg/l): 0.062
The amount of betacyanin produced (difference between absorbance at 542 nm and 620 nm) ([3]; 0.1 mg/l): 0.198
The amount of betacyanin produced (difference between absorbance at 542 nm and 620 nm) ([3]; 1.0 mg/l): 0.242
